Molecules are shown by their SMILES.

For experiment [1], the system named is Rattus norvegicus. The experiment can be described thus: Effect on urinary excretion potassium and sodium after oral administration of 25 mg/kg to rats(potassium and sodium excretion in control rat is 0.095+/-0.009). Type of experiment: functional, Urine.
For experiment [2], the system named is Rattus norvegicus. The experiment is described as follows: Ratio of urinary excretion value (urinary volume) in treated rats to that in control rats, at a peroral dose of 25 mg/Kg. Type of experiment: functional, Urine.
Experiment [3] has as its system Rattus norvegicus. The experiment is described as follows: Percent inhibition of Urea nitrogen by the compound given as ratio of UN value in treated to vehicle treated ones after intraperitoneal administration of 10 mg/kg of compound to rats(vehicle 97.7+/-8.7). The conditions noted are these: ip. The format is functional.
The test system of experiment [4] is Rattus norvegicus. The experiment is described as follows: Ratio of sodium ion/potassium ion concentration in treated rats to that in control rats, at a peroral dose of 25 mg/Kg. Type of experiment: functional.
Experiment [5] has as its system Rattus norvegicus. The experiment can be described thus: Percent inhibition of serum creatinine by the compound given as ratio of Cr value in treated to vehicle treated ones after intraperitoneal administration of 10 mg/kg of compound to rats(vehicle 2.74+/-0.27). The format is functional. The following applies: ip.
Experiment [6] concerns Rattus norvegicus. The experiment is described as follows: Oral diuretic activity was measured after oral administration of 25 mg/kg to rats(control volume is 1.04+/-0.11). The format is functional, Urine.
Experiment [7] concerns Rattus norvegicus. The experiment can be described thus: Ratio of urinary excretion value (Na+ concentration) in treated rats to that in control rats, at a peroral dose of 25 mg/Kg. The format is functional, Urine.
The test system of experiment [8] is Rattus norvegicus. The experiment is described as follows: Serum creatinine concentration measured after intraperitoneal administration of 10 mg/kg of compound to rats(vehicle 2.74+/-0.27). Type of experiment: functional.
Experiment [9] has as its system Rattus norvegicus. The experiment can be described thus: Urea nitrogen concentration measured after intraperitoneal administration of 10 mg/kg of compound to rats(vehicle 97.7+/-8.7). Type of experiment: functional.

On to `CCCn1c(=O)c2[nH]c(-c3ccc(OCC(=O)NCCN)cc3)nc2n(CCC)c1=O` [XANTHINE AMINE CONGENER], for which, in experiment [1], the Na was 0.113 m equiv 6hr-1 100g-1. Also, the T/C in experiment [2] is 1.05; in experiment [7] it was 1.19. For the same compound, the inhibition in vivo at 10 mg/kg in experiment [3] stood at 28%; in experiment [5], 24%. In addition, in experiment [4], the “Na+/K+” value is listed as 1.24. In addition, in experiment [6], the Urine volume was found to be 1.05 ml 6hr-1 100g-1. This compound had a Cr in [8] of 2.07 mg/dL. In [9], this compound showed a UN of 70.1 mg/dL.

A word on the inhibition in vivo: it is the drop in the measured response relative to a control, in per cent.

Source of the values: ChEMBL document CHEMBL1125524, “Adenosine A1 antagonists. 2. Structure-activity relationships on diuretic activities and protective effects against acute renal failure” (J Med Chem, 1992).
